Measurements: patent US10683299B2, “Pyrazolopyrazine and triazolopyrazine compounds for the treatment of infectious diseases” (Hoffmann-La Roche Inc., priority 2017, dated 2020)
pEC50: −log10 of the molar value.

System: HBV replication in HepG2.2.15 cells
Test: HBV inhibition assay in HepG2.2.15 cells (extracellular HBV DNA by qPCR)
Format: cell-based, Hepatitis B virus
Details: Hepatitis B virus, HepG2.2.15, 120 h, five days after compound treatment, extracellular HBV DNA in culture supernatant by qPCR, read-out: EC50 (effective compound concentration at which HBV replication was inhibited by 50%)
From the text: HepG2.2.15 is a stably-transfected cell line containing the HBV genome. It is derived from the hepatoblastoma cell line Hep G2 (American Type Culture Collection, ATCC® HB-8065™) by the published procedures described in reference: M A Selles et al. Proc. Natl. Acad. Sci. USA 1987, 84, 1005-1009. The cell line was maintained in Dulbecco's modified Eagle's medium and nutrient mixture F-12 (DMEM/F-12, Gibco, Cat. #: 11320-033) supplemented with 10% fetal bovine serum (Gibco, Cat. #:10099-141), 100 U/mL penicillin, 100 μg/mL streptomycin (Gibco, Cat. #:15140-122), and 0.3 mg/mL of G418 Sulfate (Gibco, Cat. #: 10131-027).
HepG2.2.15 cells were seeded into 96-well plates at a density of 3×10^4 cells per well in culture media of 100 μL DMEM/F-12 supplemented with 2.5% fetal bovine serum, 100 U/mL penicillin, 100 μg/mL streptomycin and cultured overnight at 37° C. The test compounds were serially half-log diluted in DMSO, then diluted 100 times in culture media. 100 μL culture media containing diluted compounds were added into the plates to reach 0.5% final concentration of DMSO in every well. Five days after compound treatment, culture supernatant was collected for further analysis.
For quantitative PCR detection of extracellular HBV DNA, culture supernatant was processed by 500 μg/mL Proteinase K (Sigma, Cat. #:P2308) digestion at 50° C. for 1 hour. After heat inactivation of the enzyme at 95° C. for 15 minutes, the samples were subjected to HBV DNA quantification by qPCR. The effective compound concentration at which HBV replication was inhibited by 50% (EC50) was determined.

| Compound | pEC50 |
| --- | --- |
| C[C@H]1Cn2ncc(N3CC(c4ccccc4C(=O)O)CS3(=O)=O)c2CN1C(=O)Nc1cc(F)c(F)c(F)c1 (stereo partly drawn) [Example 36, 2-[2-[(6S)-6-methyl-5-[(3,4,5-trifluorophenyl)carbamoyl]-6,7-dihydro-4H-pyrazolo[1,5-a]pyrazin-3-yl]-1,1-dioxo-1,2-thiazolidin-4-yl]benzoic acid] | 7.77 |
| COC1CS(=O)(=O)N(c2cnn3c2CN(C(=O)Nc2ccnc(C(F)F)c2)[C@@H](C)C3)C1C (stereo partly drawn) [Example 32-1, (6S)—N-[2-(difluoromethyl)-4-pyridyl]-3-(4-methoxy-3-methyl-1,1-dioxo-1,2-thiazolidin-2-yl)-6-methyl-6,7-dihydro-4H-pyrazolo[1,5-a]pyrazine-5-carboxamide] | 6.77 |
| C[C@H]1Cn2ncc(N3CCCNS3(=O)=O)c2CN1C(=O)Nc1cc(F)c(F)c(F)c1 [Example 27, (6S)-3-(1,1-dioxo-1,2,6-thiadiazinan-2-yl)-6-methyl-N-(3,4,5-trifluorophenyl)-6,7-dihydro-4H-pyrazolo[1,5-a]pyrazine-5-carboxamide] | 7.36 |
| C[C@H]1Cn2ncc(N3[C@@H](C)CNS3(=O)=O)c2CN1C(=O)Nc1cc(F)c(F)c(F)c1 [Example 22, (6S)-6-methyl-3-[(3S)-3-methyl-1,1-dioxo-1,2,5-thiadiazolidin-2-yl]-N-(3,4,5-trifluorophenyl)-6,7-dihydro-4H-pyrazolo[1,5-a]pyrazine-5-carboxamide] | 7.57 |
| C[C@H]1Cn2ncc(N3CCCS3(=O)=O)c2CN1C(=O)Nc1ccnc(C(F)F)c1 [Example 6, (6S)—N-[2-(difluoromethyl)-4-pyridyl]-3-(1,1-dioxo-1,2-thiazolidin-2-yl)-6-methyl-6,7-dihydro-4H-pyrazolo[1,5-a]pyrazine-5-carboxamide] | 7.08 |
| C[C@H]1Cn2ncc(N3CC4CCC(=O)N4CS3(=O)=O)c2CN1C(=O)Nc1cc(F)c(F)c(F)c1 (stereo partly drawn) [Example 14, (6S)-6-methyl-N-(3,4,5-trifluorophenyl)-3-(3,3,6-trioxo-4,7,8,8a-tetrahydro-1H-pyrrolo[2,1-d][1,2,5]thiadiazin-2-yl)-6,7-dihydro-4H-pyrazolo[1,5-a]pyrazine-5-carboxamide] | 7.55 |
| C[C@H]1Cn2ncc(N3CCCS3(=O)=O)c2CN1C(=O)NCc1ccccc1 [Example 11, (6S)—N-benzyl-3-(1,1-dioxo-1,2-thiazolidin-2-yl)-6-methyl-6,7-dihydro-4H-pyrazolo[1,5-a]pyrazine-5-carboxamide] | 6.96 |
| C[C@H]1Cn2ncc(N3CC(N4CCC[C@H]4C(=O)O)CS3(=O)=O)c2CN1C(=O)Nc1cc(F)c(F)c(F)c1 (stereo partly drawn) [Example 35, (2S)-1-[2-[(6S)-6-methyl-5-[(3,4,5-trifluorophenyl)carbamoyl]-6,7-dihydro-4H-pyrazolo[1,5-a]pyrazin-3-yl]-1,1-dioxo-1,2-thiazolidin-4-yl]pyrrolidine-2-carboxylic Acid] | 8.17 |
| CC1C(O)CS(=O)(=O)N1c1cnn2c1CN(C(=O)Nc1cc(F)c(F)c(F)c1)[C@@H](C)C2 (stereo partly drawn) [Example 28-1, (6S)-3-(4-hydroxy-3-methyl-1,1-dioxo-1,2-thiazolidin-2-yl)-6-methyl-N-(3,4,5-trifluorophenyl)-6,7-dihydro-4H-pyrazolo[1,5-a]pyrazine-5-carboxamide] | 7.68 |
| C[C@H]1Cn2ncc(N3CCCS3(=O)=O)c2CN1C(=O)Nc1ccc(Cl)c(F)c1 [Example 3, (6S)—N-(4-chloro-3-fluoro-phenyl)-3-(1,1-dioxo-1,2-thiazolidin-2-yl)-6-methyl-6,7-dihydro-4H-pyrazolo[1,5-a]pyrazine-5-carboxamide] | 7.44 |
| C[C@H]1Cn2ncc(N3[C@@H](C)CS3(=O)=O)c2CN1C(=O)Nc1cc(F)c(F)c(F)c1 [Example 21, (6S)-6-methyl-3-[(3S)-3-methyl-1,1-dioxo-thiazetidin-2-yl]-N-(3,4,5-trifluorophenyl)-6,7-dihydro-4H-pyrazolo[1,5-a]pyrazine-5-carboxamide] | 7.34 |
| CC1NS(=O)(=O)N(c2cnn3c2CN(C(=O)Nc2cc(F)c(F)c(F)c2)[C@@H](C)C3)[C@H]1C (stereo partly drawn) [Example 23, (6S)-3-[(3S)-3,4-dimethyl-1,1-dioxo-1,2,5-thiadiazolidin-2-yl]-6-methyl-N-(3,4,5-trifluorophenyl)-6,7-dihydro-4H-pyrazolo[1,5-a]pyrazine-5-carboxamide] | 7.28 |

Same assay, conditions: five days after compound treatment, extracellular HBV DNA in culture supernatant by qPCR, read-out: EC50 (effective compound concentration at which HBV replication was inhibited by 50%)

| Compound | pEC50 |
| --- | --- |
| CC1C(O)CS(=O)(=O)N1c1cnn2c1CN(C(=O)Nc1cc(F)c(F)c(F)c1)[C@@H](C)C2 (stereo partly drawn) [Example 28-2, (6S)-3-(4-hydroxy-3-methyl-1,1-dioxo-1,2-thiazolidin-2-yl)-6-methyl-N-(3,4,5-trifluorophenyl)-6,7-dihydro-4H-pyrazolo[1,5-a]pyrazine-5-carboxamide] | 7.74 |
